Test results reported in the SangsterLogP compilation.

assay: method code SF, from Fulcrand, P.; Berge, G.; Noel, A. (1978). Hydrazides as monoamine oxidase inhibitors. Hansch and Free Wilson correlations. Eur J Med Chem, 13(2)177-182.

SMILES | logP
CC(C)NNC(=O)COc1ccc(Cl)cc1 | 2.01

assay: method code SF-AS, from Fulcrand, P.; Berge, G.; Noel, A. (1978). Hydrazides as monoamine oxidase inhibitors. Hansch and Free Wilson correlations. Eur J Med Chem, 13(2)177-182.

SMILES | logP
CC(C)NNC(=O)C(C)(C)Oc1ccc(Cl)cc1 | 2.56
CCNNC(=O)COc1ccc(Cl)cc1 | 1.73
COc1cccc(OCC(=O)NNC(C)C)c1 | 1.33
CC(C)NNC(=O)COc1ccccc1Cl | 1.82
O=C(COc1ccccc1)NNCc1ccccc1 | 2.16
Cc1cccc(OC(C)C(=O)NNC(C)C)c1 (centres undefined) | 1.88
O=C(COc1ccc(Cl)cc1)NNCc1ccccc1 | 2.92
COc1ccc(OCC(=O)NNC(C)c2ccccc2)cc1 (centres undefined) | 2.39
CC(C)NNC(=O)C(C)Oc1ccc(Cl)cc1 (centres undefined) | 2.14
CC(C)NNC(=O)C(C)Oc1cccc(Cl)c1 (centres undefined) | 2.18
CC(NNC(=O)COc1ccccc1)c1ccccc1 (centres undefined) | 2.46
Cc1ccc(OCC(=O)NNC(C)c2ccccc2)cc1 (centres undefined) | 2.87
COc1ccc(OCC(=O)NNC(C)C)cc1 | 1.21
CC(C)NNC(=O)C(C)Oc1ccccc1Cl (centres undefined) | 2
CC(C)NNC(=O)COc1ccccc1 | 1.24
Cc1ccccc1OCC(=O)NNC(C)C | 1.83
CC(C)NNC(=O)C(C)Oc1ccccc1 (centres undefined) | 1.39
Cc1cccc(OCC(=O)NNC(C)C)c1 | 1.77
CC(C)NNC(=O)C(C)(C)Oc1ccccc1 | 1.88
CCNNC(=O)COc1ccccc1 | 1
COc1ccccc1OCC(=O)NNC(C)C | 1.11
Cc1ccc(OCC(=O)NNC(C)C)cc1 | 1.81
CC(C)NNC(=O)COc1cccc(Cl)c1 | 1.91
